# Results from US9200051B2, “Peptide compound” (TAKEDA PHARMACEUTICAL COMPANY LIMITED, priority 2013, dated 2015).
# pEC50: −log10 of the molar value. Where two headings read alike, the source gives them in different places. Square brackets hold non-standard residues; d marks the D form. Peptide text beside a SMILES is read from it. αMeF = C[C@](N)(Cc1ccccc1)C(=O)O; Aib = CC(C)(N)C(=O)O
# What was measured:
# [1] = biological target: T1, human GIPR (Homo sapiens, UniProt P48546); assay: Agonist activity against human GIPR, CRE-luciferase reporter assay (rise in intracellular cAMP) in hGIPR/CRE-LUC/CHO-K1 cells; assay type: cell-based
# T1 construct: expressed in transfected cells; host or cells: CHO-K1 (CRE-LUC/CHO-K1), plasmid hGIPR/pMSRα-neo
# T1 sequence (P48546 22-466): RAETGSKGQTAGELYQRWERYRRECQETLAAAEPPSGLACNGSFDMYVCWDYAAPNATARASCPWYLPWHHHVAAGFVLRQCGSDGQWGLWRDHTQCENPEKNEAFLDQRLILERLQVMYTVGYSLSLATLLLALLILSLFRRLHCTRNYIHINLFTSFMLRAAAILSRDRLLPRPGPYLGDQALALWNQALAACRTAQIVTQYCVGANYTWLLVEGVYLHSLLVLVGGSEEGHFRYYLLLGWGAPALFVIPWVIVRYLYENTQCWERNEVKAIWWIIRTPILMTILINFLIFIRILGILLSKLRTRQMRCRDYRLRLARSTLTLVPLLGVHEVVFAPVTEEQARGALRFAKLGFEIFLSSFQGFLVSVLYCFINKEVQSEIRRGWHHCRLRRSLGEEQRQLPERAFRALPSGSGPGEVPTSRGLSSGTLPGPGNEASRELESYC
# [2] = biological target: T2, human GLP-1R (Homo sapiens, UniProt P43220); assay: Agonist activity against human GLP-1R, CRE-luciferase reporter assay in hGLP-1R/CRE-luc/CHO-K1 cells; assay type: cell-based
# T2 construct: expressed in transfected cells; host or cells: CHO-K1, plasmids hGLP-1/pIRESneo3 and Cre-luc(Zeo)
# T2 sequence (P43220 24-463): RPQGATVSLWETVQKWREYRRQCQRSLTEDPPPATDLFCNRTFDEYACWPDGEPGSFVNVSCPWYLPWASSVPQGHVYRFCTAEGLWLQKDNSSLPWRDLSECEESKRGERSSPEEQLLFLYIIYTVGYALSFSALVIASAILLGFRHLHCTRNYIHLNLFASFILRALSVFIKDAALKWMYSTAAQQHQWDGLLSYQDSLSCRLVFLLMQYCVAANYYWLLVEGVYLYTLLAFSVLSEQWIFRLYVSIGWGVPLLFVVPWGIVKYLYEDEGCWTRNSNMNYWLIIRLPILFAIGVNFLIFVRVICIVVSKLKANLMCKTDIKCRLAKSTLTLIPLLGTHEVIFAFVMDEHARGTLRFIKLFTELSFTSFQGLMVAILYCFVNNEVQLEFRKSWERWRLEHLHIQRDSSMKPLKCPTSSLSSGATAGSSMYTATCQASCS
# [3] = biological target: T3, human glucagon R (Homo sapiens, UniProt P47871); assay: Agonist activity against human glucagon R, CRE-luciferase reporter assay in hGlucagonR/CRE-LUC/CHO-K1 cells; assay type: cell-based
# T3 construct: expressed in transfected cells; host or cells: CHO-K1 (CRE-LUC/CHO-K1), plasmid hGlucagonR/pMSRα-neo
# T3 sequence (P47871 26-477): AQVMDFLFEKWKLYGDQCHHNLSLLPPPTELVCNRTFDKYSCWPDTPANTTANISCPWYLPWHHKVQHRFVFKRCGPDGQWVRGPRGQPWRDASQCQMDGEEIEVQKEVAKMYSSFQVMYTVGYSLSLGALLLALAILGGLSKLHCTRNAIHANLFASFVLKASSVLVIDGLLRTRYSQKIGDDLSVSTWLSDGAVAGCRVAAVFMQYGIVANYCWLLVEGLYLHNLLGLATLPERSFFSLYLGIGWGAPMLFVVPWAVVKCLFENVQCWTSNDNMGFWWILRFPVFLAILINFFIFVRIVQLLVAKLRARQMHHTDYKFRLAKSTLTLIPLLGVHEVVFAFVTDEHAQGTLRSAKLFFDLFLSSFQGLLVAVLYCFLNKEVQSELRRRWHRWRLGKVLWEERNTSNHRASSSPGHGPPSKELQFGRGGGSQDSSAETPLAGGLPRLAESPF
# [4] = Solubility test in Britton-Robinson buffer, observed visually; assay type: physicochemical
# Experimental: The test compound of approximately 2 mg was measured precisely. Solvents (10 μL, 20 μL or 40 μL) with different pH (Britton-Robinson buffer (pH 3, 5, 7, 9)) were added to each test compound at 25° C., and the solubility was observed visually.
# [5] = hGIPR/CRE-LUC/CHO-K1 cells, 4 hours incubation, 10 nM GIP = 100%, read-out: Agonist activity (EC50) hGIPR
# [6] = hGLP-1R/CRE-luc/CHO-K1 cells, 4 hours incubation, 10 nM GLP-1 = 100%, read-out: Agonist activity (EC50) hGLP-1R
# [7] = hGlucagonR/CRE-LUC/CHO-K1 cells, 4 hours incubation, 10 nM glucagon = 100%, read-out: Agonist activity (EC50) hGCGR
SMILES,pEC50 [1],pEC50 [2],pEC50 [3],"solubility ([4]; Britton-Robinson buffer pH 3, 25° C., visual, read-out: Solubility (mg /mL) pH 3)","solubility ([4]; Britton-Robinson buffer pH 5, 25° C., visual, read-out: Solubility (mg /mL) pH 5)","solubility ([4]; Britton-Robinson buffer pH 7, 25° C., visual, read-out: Solubility (mg /mL) pH 7)","solubility ([4]; Britton-Robinson buffer pH 9, 25° C., visual, read-out: Solubility (mg /mL) pH 9)","pEC50 [1, 5]","pEC50 [2, 6]","pEC50 [3, 7]",solubility ([4]; pH 3),solubility ([4]; pH 5),solubility ([4]; pH 7),solubility ([4]; pH 9)
CC[C@H](C)[C@H](NC(=O)C(C)(C)NC(=O)[C@H](Cc1ccc(O)cc1)NC(=O)[C@H](CC(=O)O)NC(=O)[C@H](CO)NC(=O)[C@@H](NC(=O)[C@](C)(Cc1ccccc1)NC(=O)[C@@H](NC(=O)CNC(=O)[C@H](CCC(=O)O)NC(=O)C(C)(C)NC(=O)[C@@H](N)Cc1ccc(O)cc1)[C@@H](C)O)[C@@H](C)O)C(=O)NC(C)(C)C(=O)N[C@@H](CC(C)C)C(=O)N[C@@H](CC(=O)O)C(=O)N[C@@H](CCCCN)C(=O)N[C@@H](CCC(N)=O)C(=O)N[C@@H](C)C(=O)N[C@@H](CCC(N)=O)C(=O)N[C@@H](C)C(=O)N[C@@H](CCC(=O)O)C(=O)N[C@@H](Cc1ccccc1)C(=O)N[C@H](C(=O)N[C@@H](CCCCN)C(=O)N[C@@H](Cc1c[nH]c2ccccc12)C(=O)N[C@@H](CC(C)C)C(=O)N[C@@H](CC(C)C)C(=O)N[C@@H](CCCCN)C(=O)NCC(=O)NCC(=O)N1CCC[C@H]1C(=O)N[C@@H](CO)C(=O)N[C@@H](CO)C(=O)NCC(=O)N[C@@H](C)C(=O)N1CCC[C@H]1C(=O)N1CCC[C@H]1C(=O)N1CCC[C@H]1C(=O)N[C@@H](CO)C(=O)N[C@@H](CCCCN)C(N)=O)C(C)C [Example 2] (H-Y[Aib]EGT[αMeF]TSDY[Aib]I[Aib]LDKQAQAEFVKWLLKGGPSSGAPPPSK-NH2),11.17,10.80,< 6.00,> 100 mg/mL,> 100 mg/mL,> 50 mg/mL,> 50 mg/mL,,,,,,,
CC(C)C[C@H](NC(=O)[C@H](CC(C)C)NC(=O)[C@H](Cc1c[nH]c2ccccc12)NC(=O)[C@H](CCCCN)NC(=O)[C@@H](NC(=O)[C@H](Cc1ccccc1)NC(=O)[C@H](CCC(=O)O)NC(=O)[C@H](CCC(N)=O)NC(=O)[C@H](CCC(N)=O)NC(=O)[C@H](C)NC(=O)[C@H](CCC(N)=O)NC(=O)[C@H](CCCCN)NC(=O)[C@H](CC(=O)O)NC(=O)[C@H](CC(C)C)NC(=O)[C@H](Cc1ccc(O)cc1)NC(=O)[C@H](CCCCN)NC(=O)C(C)(C)NC(=O)[C@H](Cc1ccc(O)cc1)NC(=O)[C@H](CC(=O)O)NC(=O)[C@H](CO)NC(=O)[C@@H](NC(=O)[C@](C)(Cc1ccccc1)NC(=O)[C@@H](NC(=O)CNC(=O)[C@H](CCC(=O)O)NC(=O)C(C)(C)NC(=O)[C@@H](N)Cc1ccc(O)cc1)[C@@H](C)O)[C@@H](C)O)C(C)C)C(=O)N[C@@H](CCCCN)C(=O)NCC(=O)NCC(=O)N1CCC[C@H]1C(=O)N[C@@H](CO)C(=O)N[C@@H](CO)C(=O)NCC(=O)N[C@@H](C)C(=O)N1CCC[C@H]1C(=O)N1CCC[C@H]1C(=O)N1CCC[C@H]1C(=O)N[C@@H](CO)C(N)=O [Example 26] (H-Y[Aib]EGT[αMeF]TSDY[Aib]KYLDKQAQQEFVKWLLKGGPSSGAPPPS-NH2),,,,,,,,10.89,10.82,< 6.00,> 200 mg/mL,> 200 mg/mL,> 200 mg/mL,> 200 mg/mL
CC(C)C[C@H](NC(=O)[C@H](CC(C)C)NC(=O)[C@H](Cc1c[nH]c2ccccc12)NC(=O)[C@H](CCCCN)NC(=O)[C@@H](NC(=O)[C@H](Cc1ccccc1)NC(=O)[C@H](CCC(=O)O)NC(=O)[C@H](CCC(N)=O)NC(=O)[C@H](CCC(N)=O)NC(=O)[C@H](C)NC(=O)[C@H](CCC(N)=O)NC(=O)[C@H](CCCCN)NC(=O)[C@H](CC(=O)O)NC(=O)[C@H](CC(C)C)NC(=O)[C@H](Cc1ccc(O)cc1)NC(=O)[C@H](CCCCN)NC(=O)C(C)(C)NC(=O)[C@H](Cc1ccc(O)cc1)NC(=O)[C@H](CC(=O)O)NC(=O)[C@H](CO)NC(=O)[C@@H](NC(=O)[C@](C)(Cc1ccccc1)NC(=O)[C@@H](NC(=O)CNC(=O)[C@H](CCC(=O)O)NC(=O)C(C)(C)NC(=O)[C@@H](N)Cc1ccc(O)cc1)[C@@H](C)O)[C@@H](C)O)C(C)C)C(=O)N[C@@H](CCCCN)C(=O)NCC(=O)NCC(=O)N1CCC[C@H]1C(=O)N[C@@H](CO)C(=O)N[C@@H](CO)C(=O)NCC(=O)N[C@@H](C)C(=O)N1CCC[C@H]1C(=O)N1CCC[C@H]1C(=O)N1CCC[C@H]1C(=O)N[C@@H](CO)C(=O)N[C@@H](CCCCN)C(N)=O [Example 25] (H-Y[Aib]EGT[αMeF]TSDY[Aib]KYLDKQAQQEFVKWLLKGGPSSGAPPPSK-NH2),,,,,,,,10.89,10.85,< 6.00,> 200 mg/mL,> 200 mg/mL,> 200 mg/mL,> 200 mg/mL
CC(C)C[C@H](NC(=O)[C@H](CC(C)C)NC(=O)[C@H](Cc1c[nH]c2ccccc12)NC(=O)[C@H](CCCCN)NC(=O)[C@@H](NC(=O)[C@H](Cc1ccccc1)NC(=O)[C@H](CCC(=O)O)NC(=O)[C@H](C)NC(=O)[C@H](CCC(N)=O)NC(=O)[C@H](C)NC(=O)[C@H](CCC(N)=O)NC(=O)[C@H](CCCCN)NC(=O)[C@H](CC(=O)O)NC(=O)[C@H](CC(C)C)NC(=O)C(C)(C)NC(=O)[C@H](Cc1ccccc1)NC(=O)C(C)(C)NC(=O)[C@H](Cc1ccc(O)cc1)NC(=O)[C@H](CC(=O)O)NC(=O)[C@H](CO)NC(=O)[C@@H](NC(=O)[C@](C)(Cc1ccccc1)NC(=O)[C@@H](NC(=O)CNC(=O)[C@H](CCC(=O)O)NC(=O)C(C)(C)NC(=O)[C@@H](N)Cc1ccc(O)cc1)[C@@H](C)O)[C@@H](C)O)C(C)C)C(=O)N[C@@H](CCCCN)C(=O)NCC(=O)NCC(=O)N1CCC[C@H]1C(=O)N[C@@H](CO)C(=O)N[C@@H](CO)C(=O)NCC(=O)N[C@@H](C)C(=O)N1CCC[C@H]1C(=O)N1CCC[C@H]1C(=O)N1CCC[C@H]1C(=O)N[C@@H](CO)C(=O)N[C@@H](CCCCN)C(N)=O [Example 11] (H-Y[Aib]EGT[αMeF]TSDY[Aib]F[Aib]LDKQAQAEFVKWLLKGGPSSGAPPPSK-NH2),10.82,10.66,< 6.00,,,,,,,,,,,
CC[C@H](C)[C@H](NC(=O)[C@H](C)NC(=O)[C@H](Cc1ccc(O)cc1)NC(=O)[C@H](CC(=O)O)NC(=O)[C@H](CO)NC(=O)[C@@H](NC(=O)[C@](C)(Cc1ccccc1)NC(=O)[C@@H](NC(=O)CNC(=O)[C@H](CCC(=O)O)NC(=O)C(C)(C)NC(=O)[C@@H](N)Cc1ccc(O)cc1)[C@@H](C)O)[C@@H](C)O)C(=O)NC(C)(C)C(=O)N[C@@H](CC(C)C)C(=O)N[C@@H](CC(=O)O)C(=O)N[C@@H](CCCCN)C(=O)N[C@@H](CCC(N)=O)C(=O)N[C@@H](C)C(=O)N[C@@H](CCC(N)=O)C(=O)N[C@@H](C)C(=O)N[C@@H](CCC(=O)O)C(=O)N[C@@H](Cc1ccccc1)C(=O)N[C@H](C(=O)N[C@@H](CCCCN)C(=O)N[C@@H](Cc1c[nH]c2ccccc12)C(=O)N[C@@H](CC(C)C)C(=O)N[C@@H](CC(C)C)C(=O)N[C@@H](CCCCN)C(=O)NCC(=O)NCC(=O)N1CCC[C@H]1C(=O)N[C@@H](CO)C(=O)N[C@@H](CO)C(=O)NCC(=O)N[C@@H](C)C(=O)N1CCC[C@H]1C(=O)N1CCC[C@H]1C(=O)N1CCC[C@H]1C(=O)N[C@@H](CO)C(=O)N[C@@H](CCCCN)C(N)=O)C(C)C [Example 1] (H-Y[Aib]EGT[αMeF]TSDYAI[Aib]LDKQAQAEFVKWLLKGGPSSGAPPPSK-NH2),11.09,10.92,< 6.00,,,,,,,,,,,
CC[C@H](C)[C@H](NC(=O)C(C)(C)NC(=O)[C@H](Cc1ccc(O)cc1)NC(=O)[C@H](CC(=O)O)NC(=O)[C@H](CO)NC(=O)[C@@H](NC(=O)[C@](C)(Cc1ccccc1)NC(=O)[C@@H](NC(=O)CNC(=O)[C@H](CCC(=O)O)NC(=O)C(C)(C)NC(=O)[C@@H](N)Cc1ccc(O)cc1)[C@@H](C)O)[C@@H](C)O)C(=O)N[C@@](C)(Cc1ccccc1)C(=O)N[C@@H](CC(C)C)C(=O)N[C@@H](CC(=O)O)C(=O)N[C@@H](CCCCN)C(=O)N[C@@H](CCC(N)=O)C(=O)N[C@@H](C)C(=O)N[C@@H](CCC(N)=O)C(=O)N[C@@H](C)C(=O)N[C@@H](CCC(=O)O)C(=O)N[C@@H](Cc1ccccc1)C(=O)N[C@H](C(=O)N[C@@H](CCCCN)C(=O)N[C@@H](Cc1c[nH]c2ccccc12)C(=O)N[C@@H](CC(C)C)C(=O)N[C@@H](CC(C)C)C(=O)N[C@@H](CCCCN)C(=O)NCC(=O)NCC(=O)N1CCC[C@H]1C(=O)N[C@@H](CO)C(=O)N[C@@H](CO)C(=O)NCC(=O)N[C@@H](C)C(=O)N1CCC[C@H]1C(=O)N1CCC[C@H]1C(=O)N1CCC[C@H]1C(=O)N[C@@H](CO)C(=O)N[C@@H](CCCCN)C(N)=O)C(C)C [Example 13] (H-Y[Aib]EGT[αMeF]TSDY[Aib]I[αMeF]LDKQAQAEFVKWLLKGGPSSGAPPPSK-NH2),11.14,10.96,< 6.00,,,,,,,,,,,
